The record followed here is patent US5283271A, “3,5-diphenyl or substituted 3,5-diphenyl-1-hydroxy-1,2-dihydroimidazole-2-thiones” (Olin Corporation, priority 1992, dated 1994).

What all share (format): cell-based
One assay deals with S. aureus. The experiment in a line: Minimum Inhibitory Concentration (MIC), S. aureus. The note with it: Staphylococcus aureus, 48 h, Tryptic Soy Broth, 37° C., two days. The procedure:
(§1) Determination of the Minimum Inhibitory Concentrations (MIC's) for the Compounds Prepared in Part A
(§2) Solutions of the experimental compounds in dimethyl sulfoxide and an aqueous solution of sodium pyrithione were serially diluted in nutrient broth (Tryptic Soy Broth for bacteria and Sabouraud Dextrose Broth for fungi) in microtiter plates. Equal volumes of a broth supension of bacteria (10^6 CFU/ml) or fungi (10^5 cells or spores/ml) were added to each dilution, and the plates were incubated at 37° C. (bacteria and yeast) or 28° C. (molds). Bacteria, yeast and molds were incubated two, five and seven days respectively before determining the highest inhibitory dilution.

For a further assay, the system named is Aureobasidium pullulans. Nature of the assay: Minimum Inhibitory Concentration (MIC), Aureobasidium pullulans. The method, then: as §1, §2
The next assay concerns E. Coli. The experiment in a line: Minimum Inhibitory Concentration (MIC), E. Coli. The note with it: Escherichia coli, 48 h, Tryptic Soy Broth, 37° C., two days. The method, then: as §1, §2
For the next assay, the system named is Candida albicans. The experiment in a line: Minimum Inhibitory Concentration (MIC), Candida albicans. The following applies: 120 h. The procedure: as §1, §2
Another assay relates to Fusarium. Nature of the assay: Minimum Inhibitory Concentration (MIC), Fusarium. The note with it: 168 h, Sabouraud Dextrose Broth, 28° C., seven days (molds). The procedure: as §1, §2
Another assay has as its system Aspergillins niger. Nature of the assay: Minimum Inhibitory Concentration (MIC), Aspergillins niger. The following applies: 168 h. The procedure: as §1, §2
Setting [1] is: Sabouraud Dextrose Broth, read-out: MIC.
[2] abbreviates: Sabouraud Dextrose Broth, 37° C., five days (yeast), read-out: MIC.
The mark [3] stands for this setting: Aspergillins niger, Sabouraud Dextrose Broth, 28° C., seven days (molds), read-out: MIC.

Each structure is given as a SMILES string. ≈ marks a conversion by molar mass, not a printed value. Where a name gives a salt, the structure may show the parent alone. Read-outs that look alike come from different tables or passages of the source.

In general, MIC refers to the lowest concentration that inhibits growth of the organism. On to `On1c(-c2ccccc2)cn(-c2ccccc2)c1=S` [Compound 1, 3,5-diphenyl-1-hydroxy-1,2-dihydroimidazole-2-thione], for which the MIC against S. aureus was found to be 256 µg/mL (≈ 954 µM); with Aureobasidium pullulans (setting [1]) it was 2 µg/mL (≈ 7.45 µM); with E. Coli it was 64 µg/mL (≈ 239 µM); in the assay on Candida albicans (setting [2]), 2 µg/mL (≈ 7.45 µM); with Fusarium it was 16 µg/mL (≈ 59.6 µM); in the assay on Aspergillins niger (setting [3]), 8 µg/mL (≈ 29.8 µM).
With `[O-][n+]1ccccc1S` [Pyrithione, sodium salt, sodium pyrithione, reference compound], the MIC in the assay with S. aureus was in the range of 4 to 8 µg/mL; with Aureobasidium pullulans it was 2 to 32 µg/mL; with E. Coli, 8 to 32 µg/mL; against Candida albicans, 4 to 16 µg/mL; with Fusarium, 64 to 128 µg/mL; in the assay with Aspergillins niger, 32 to 128 µg/mL.
On to `COc1ccc(-c2cn(-c3ccccc3)c(=S)n2O)cc1` [Compound 3, 5-(p-Methoxyphenyl)-3-phenyl-1-hydroxy-1,2-dihydroimidazole-2-thione], for which the MIC is 32 µg/mL (≈ 107 µM) in the assay with S. aureus; 16 µg/mL (≈ 53.6 µM) in the assay with Aureobasidium pullulans (setting [1]); 32 µg/mL (≈ 107 µM) against E. Coli; 2 µg/mL (≈ 6.7 µM) in the assay on Candida albicans (setting [2]); 512 µg/mL (≈ 1720 µM) against Fusarium; 512 µg/mL (≈ 1720 µM) in the assay with Aspergillins niger (setting [3]).
Turning to `COc1ccc(-n2cc(-c3ccccc3)n(O)c2=S)cc1` [Compound 2, 3-(p-methoxyphenyl)-5-phenyl-1-hydroxy-1,2-dihydroimidazole-2-thione], the MIC with S. aureus came out at 2050 µg/mL (≈ 6860 µM); in the assay with Aureobasidium pullulans (setting [1]), 8 µg/mL (≈ 26.8 µM); against E. Coli it was 32 µg/mL (≈ 107 µM); in the assay on Candida albicans (setting [2]), 4 µg/mL (≈ 13.4 µM); in the assay with Fusarium, 1020 µg/mL (≈ 3430 µM); in the assay on Aspergillins niger (setting [3]), 64 µg/mL (≈ 215 µM).
